Test results: paper PMC8793051 (ACS Omega, 2022)

Columns and labels:
HCT-15 = assay: NCI-60 SRB growth assay; assay type: cell-based, human; conditions: HCT-15
NIH3T3 = assay: MTT cytotoxicity assay; assay type: cell-based; conditions: Mus musculus, NIH3T3, 48 h
RPMI-8226 = assay: NCI-60 SRB growth assay; assay type: cell-based, human; conditions: RPMI-8226
MOLT-4 = assay: NCI-60 SRB growth assay; assay type: cell-based, human
Hu Topo I = molecular target: T1, Hu Topo I (Homo sapiens, UniProt P11387); assay: Plasmid DNA relaxation assay
T1 sequence (P11387 1-765): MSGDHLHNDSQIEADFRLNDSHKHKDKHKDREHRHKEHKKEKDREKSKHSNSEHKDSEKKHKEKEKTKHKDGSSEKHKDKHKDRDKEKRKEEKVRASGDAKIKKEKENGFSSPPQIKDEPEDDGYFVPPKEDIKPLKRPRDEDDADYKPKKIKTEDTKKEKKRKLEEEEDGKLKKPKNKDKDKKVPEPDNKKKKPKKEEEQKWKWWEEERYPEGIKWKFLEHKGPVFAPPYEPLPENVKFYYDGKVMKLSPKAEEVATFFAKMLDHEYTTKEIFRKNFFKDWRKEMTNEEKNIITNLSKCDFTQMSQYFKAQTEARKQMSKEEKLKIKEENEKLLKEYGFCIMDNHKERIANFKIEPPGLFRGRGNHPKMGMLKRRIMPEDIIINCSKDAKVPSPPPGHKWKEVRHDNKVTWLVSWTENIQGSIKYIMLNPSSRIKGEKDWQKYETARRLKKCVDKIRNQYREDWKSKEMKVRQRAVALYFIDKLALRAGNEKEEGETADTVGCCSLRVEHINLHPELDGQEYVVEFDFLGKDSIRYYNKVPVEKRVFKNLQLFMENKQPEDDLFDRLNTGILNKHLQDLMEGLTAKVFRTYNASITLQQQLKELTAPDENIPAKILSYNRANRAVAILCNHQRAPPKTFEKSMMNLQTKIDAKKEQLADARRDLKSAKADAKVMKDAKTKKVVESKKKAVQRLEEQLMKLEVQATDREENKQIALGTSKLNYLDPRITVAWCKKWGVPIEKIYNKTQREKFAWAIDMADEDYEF

DU-145 = assay: NCI-60 SRB growth assay; assay type: cell-based, human
T-47D = assay: NCI-60 SRB growth assay; assay type: cell-based, human
SK-MEL-28 = assay: NCI-60 SRB growth assay; assay type: cell-based, human
HCT-116 = assay: NCI-60 SRB growth assay; assay type: cell-based, human; conditions: HCT-116
NCI-H460 = assay: NCI-60 SRB growth assay; assay type: cell-based, human
MALME-3M = assay: NCI-60 SRB growth assay; assay type: cell-based, human
RXF 393 = assay: NCI-60 SRB growth assay; assay type: cell-based, human
OVCAR-3 = assay: NCI-60 SRB growth assay; assay type: cell-based, human
OVCAR-4 = assay: NCI-60 SRB growth assay; assay type: cell-based, human
OVCAR-5 = assay: NCI-60 SRB growth assay; assay type: cell-based, human
SF-295 = assay: NCI-60 SRB growth assay; assay type: cell-based, human
A549/ATCC = assay: NCI-60 SRB growth assay; assay type: cell-based, human
SK-MEL-5 = assay: NCI-60 SRB growth assay; assay type: cell-based, human
NCI-H522 = assay: NCI-60 SRB growth assay; assay type: cell-based, human
OVCAR-8 = assay: NCI-60 SRB growth assay; assay type: cell-based, human; conditions: OVCAR-8
UO-31 = assay: NCI-60 SRB growth assay; assay type: cell-based, human
[1] = system: oligo-2: d(CGATGTACATCG)2; assay: UV thermal denaturation; assay type: binding
M14 = assay: NCI-60 SRB growth assay; assay type: cell-based, human; conditions: M14
NCI-H23 = assay: NCI-60 SRB growth assay; assay type: cell-based, human
SNB-75 = assay: NCI-60 SRB growth assay; assay type: cell-based, human

Work on `CCCCN1CCN(c2ccc3[nH]c(-c4ccc5[nH]c(-c6ccc(C(F)(F)F)cc6)nc5c4)nc3c2)CC1` [12b, 5-(5-(4-Butylpiperazin-1-yl)-1H-benzo[d]imidazol-2-yl)2(4(trifluoromethyl)phenyl)-1H-benzo[d]imidazole] yielded a TGI (HCT-15) of 740 nM, a GI50 (HCT-15; Homo sapiens) of 270 nM and an IC50 (NIH3T3) of 3200 nM. For the same compound, the GI50 (RPMI-8226; Homo sapiens) was 250 nM, the TGI (RPMI-8226) was 620 nM and the GI50 (MOLT-4; Homo sapiens, MOLT-4) was 1070 nM. It also gave a CC50 (MOLT-4; Homo sapiens, MOLT-4, read-out: LC50) of 6300 nM, a TGI (MOLT-4; MOLT-4) of 2500 nM and an IC50 (Hu Topo I) of 16000 nM. For the same compound, the TGI (DU-145; DU-145) was 1680 nM, the GI50 (DU-145; Homo sapiens, DU-145) was 450 nM and the CC50 (DU-145; Homo sapiens, DU-145, read-out: LC50) was 4300 nM. The GI50 (T-47D; Homo sapiens, T47D) was 1240 nM, the TGI (T-47D; T-47D) was 3230 nM and the GI50 (SK-MEL-28; Homo sapiens, SK-MEL-28) was 1700 nM. It also gave a CC50 (SK-MEL-28; Homo sapiens, SK-MEL-28, read-out: LC50) of 5900 nM, a TGI (SK-MEL-28; SK-MEL-28) of 3100 nM and a TGI (HCT-116) of 420 nM. For the same compound, the GI50 (HCT-116; Homo sapiens) was 200 nM, the GI50 (NCI-H460; Homo sapiens, NCI-H460) was 230 nM and the CC50 (NCI-H460; Homo sapiens, NCI-H460, read-out: LC50) was 1620 nM. The TGI (NCI-H460; NCI–H460) was 500 nM, the GI50 (MALME-3M; Homo sapiens, Malme-3M) was 1400 nM and the TGI (MALME-3M; MALME-3M) was 3000 nM. For the same compound, the GI50 (RXF 393; Homo sapiens, RXF 393) was 470 nM, the TGI (RXF 393; RXF393) was 1500 nM and the GI50 (OVCAR-3; Homo sapiens, OVCAR-3) was 210 nM. The CC50 (OVCAR-3; Homo sapiens, OVCAR-3, read-out: LC50) was 730 nM, the TGI (OVCAR-3; OVCAR-3) was 400 nM and the GI50 (OVCAR-4; Homo sapiens, OVCAR-4) was 600 nM. The CC50 (OVCAR-4; Homo sapiens, OVCAR-4, read-out: LC50) was 5200 nM, the TGI (OVCAR-4; OVCAR-4) was 1800 nM and the GI50 (OVCAR-5; Homo sapiens, OVCAR-5) was 1800 nM. It also gave a CC50 (OVCAR-5; Homo sapiens, OVCAR-5, read-out: LC50) of 5900 nM, a TGI (OVCAR-5; OVCAR-5) of 3500 nM and a GI50 (SF-295; Homo sapiens, SF-295) of 1340 nM. It also gave a CC50 (SF-295; Homo sapiens, SF-295, read-out: LC50) of 5400 nM, a TGI (SF-295; SF-265) of 2700 nM and a TGI (A549/ATCC; A549/ATCC) of 1190 nM. It also gave a GI50 (A549/ATCC; Homo sapiens, A549) of 350 nM, a GI50 (SK-MEL-5; Homo sapiens, SK-MEL-5) of 1600 nM and a CC50 (SK-MEL-5; Homo sapiens, SK-MEL-5, read-out: LC50) of 6200 nM. For the same compound, the TGI (SK-MEL-5; SK-MEL-5) was 3200 nM, the GI50 (NCI-H522; Homo sapiens, NCI-H522) was 1600 nM and the TGI (NCI-H522; NCI–H522) was 3600 nM. It also gave a GI50 (OVCAR-8; Homo sapiens) of 1100 nM, a TGI (OVCAR-8) of 2800 nM and a GI50 (UO-31; Homo sapiens, UO-31) of 1770 nM. The CC50 (UO-31; Homo sapiens, UO-31, read-out: LC50) was 5900 nM, the TGI (UO-31; UO-31) was 3240 nM and the ΔTm ([1]; r = 0.5) was 1 °C. The Tm ([1]; r = 0.5, oligo 2.5 μM) was 57.9 °C, the Tm ([1]; r = 1) was 58.9 °C and the ΔTm ([1]; r = 1) was 2 °C. The Tm ([1]; r = 1.5) was 58.9 °C, the ΔTm ([1]; r = 1.5) was 2 °C and the Tm ([1]; r = 2.0) was 59.9 °C. It also gave a ΔTm ([1]; r = 2.0) of 3 °C, a GI50 (M14; Homo sapiens) of 370 nM and a TGI (M14) of 2400 nM. The GI50 (NCI-H23; Homo sapiens, NCI-H23) was 1650 nM, the CC50 (NCI-H23; Homo sapiens, NCI-H23, read-out: LC50) was 6800 nM and the TGI (NCI-H23; NCI–H23) was 3360 nM. For the same compound, the GI50 (SNB-75; Homo sapiens, SNB-75) was 1050 nM, the CC50 (SNB-75; Homo sapiens, SNB-75, read-out: LC50) was 4800 nM and the TGI (SNB-75; SNB-75) was 2250 nM.
